In patent publication US5064862A, “Anticonvulsant method and formulations” (priority 1990, dated 1991):
Values joined by “and” are separate entries in the source; they are usually repeats but may differ in a detail not shown here. Identical values can stand only once. “Also recorded” adds a separate entry of the source. Like-named read-outs stand apart in the source and are kept apart here.

Legend:
[1] = system: maximal electroshock seizures (MES);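 on animals with anti-MES activity at 5 mg/kg: seizures induced by corneal electroshock, 60-cycle alternating current at 50 mA for 0.2 s, protection means no hind limb tonic extension, scored right after the shock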;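 on safety ratio (SR=TD3/ED97), MES test: seizures induced by corneal electroshock, 60-cycle alternating current at 50 mA for 0.2 s, protection means no hind limb tonic extension, scored right after the shock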
Method: The preliminary screening was done at doses of the test compounds from 30 mg/kg up to 600 mg/kg adminstered ip in mice and evaluated against maximal electroshock seizures (MES) and subcutaneous Metrazole (scMet) induced convulsions and in the rotorod test for neurologic deficit.
(§1) All tests were performed using male Carworth Farms number-one mice. Test solutions of all compounds were prepared in 30% polyethylene glycol 400 and animals were dosed intraperitoneally (ip) at 30 minutes prior to testing.
Maximal electroshock seizures (MES) were elicited with a 60 cycle alternating current of 50 mA intensity delivered for 0.2 second via corneal electrodes. A drop of 0.9% saline was instilled in the eye prior to application of electrodes. The animals were examined and evaluated immediately after the electroshock for the occurrence of clonic, flexor tonic, or extensor tonic convulsions or death. Abolition of the hind limb tonic extension component of the seizure was defined as protection in the MES test. The ED50 was determined for the test compound as the dose which inhibited the occurrence of hind limb tonic convulsions in one half of the animals immediately after the electroshock as determined by graphical interpolation.
(§2) Neurological deficit was measured in mice using the rotorod test. The dosed animal was placed on a 1-inch diameter knurled plastic rod rotating at 6 rpm. Neurologic toxicity was defined as the failure of the animal to remain on the rod for 1 minute. The median anticonvulsant protency (ED50) and toxicity (TD50) were determined by the graphical method.

[2] = system: maximal electroshock seizures (MES); details: cited from earlier work;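 on animals with anti-MES activity at 5 mg/kg: seizures induced by corneal electroshock, 60-cycle alternating current at 50 mA for 0.2 s, protection means no hind limb tonic extension, scored right after the shock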;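 on safety ratio (SR=TD3/ED97), MES test: seizures induced by corneal electroshock, 60-cycle alternating current at 50 mA for 0.2 s, protection means no hind limb tonic extension, scored right after the shock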
[3] = system: subcutaneous Metrazole (scMet) induced convulsions; details: cited from earlier work
[4] = system: subcutaneous Metrazole (scMet) induced convulsions; assay: Subcutaneous pentylenetetrazole (Metrazol) seizure threshold test (scMet) in mice, ip; details: for minimal effective dose / ED50: Mus musculus; for ED50: read-out: scMET ED50
Method: Protection in this test was defined as a failure to observe a single episode of clonic spasms of at least 5 second duration during a 30 minute period following adminstration of the test compound.

[5] = system: convulsions induced by sc bicuculline; assay: sc bicuculline induced seizures in mice; assay type: in vivo; details: doses up to 30 mg/kg
[6] = system: convulsions induced by sc picrotoxin; assay: sc picrotoxin induced seizures in mice; assay type: in vivo; details: doses up to 30 mg/kg
[7] = system: convulsions induced by sc strychnine; assay: sc strychnine induced seizures in mice; assay type: in vivo; details: doses up to 30 mg/kg
[8] = system: neurologic deficit (rotorod); details: mouse, in vivo
Method: as §1, §2

in vivo [9] = details: mouse, ip
Method: as §1

[10] = system: neurologic deficit (rotorod); assay: Rotorod test for neurologic deficit in mice, ip
Method: as §1, §2

in vivo [11] = details: mouse, ip; remark: listed apart in the source
Method: as §1, §2

[12] = man; cited from earlier work
[13] = ip, 0.5 h, read-out: scMet activity, 30 min
[14] = ip, 4 h, read-out: scMet activity, 4 hrs
[15] = previous studies by Clark et al.

For `CC(NC(=O)c1ccc(N)cc1)c1ccccc1` (stereo not drawn) [Compound 14], the “safety ratio (SR=TD3/ED97), MES test” value ([1]; mouse, in vivo, ip) is listed as 3.5, the “lethal dose (LD50)” value (ip, mice) is listed as 718.18 mg/kg and the “MES ED50” value ([2]; Clark et al, ip, mice) is listed as 18.02 mg/kg. The “MES PI (TD50/ED50)” value ([2]; Clark et al, ip, mice) was 9.50, the “scMET ED50” value ([3]; Clark et al, ip, mice) was 41.78 mg/kg and the “scMET PI (TD50/ED50)” value ([3]; Clark et al, ip, mice) was 4.10.
With `Cc1cccc(C)c1NC(=O)c1ccc(N)cc1` [Example 1, 4-Amino-N-(2,6-dimethylphenyl) benzamide] the “anti-scMet activity (in words), 30 min” value ([4]; 30 minutes, ip, mice) was “No anti-scMet activity”, the “anti-scMet activity (in words), 4 hours” value ([4]; 4 hours, ip, mice) was “No anti-scMet activity” and the minimal effective dose [4, 13] was greater than 300 mg/kg. For the same molecule, the minimal effective dose [4, 14] was greater than 300 mg/kg, the “effect against convulsions induced by sc metrazole” value ([4]; doses up to 30 mg/kg, mice) was “ineffective” and the “anti-scMet activity (in words)” value ([4]; ip, mice) was “absent”. The “effect against convulsions induced by sc bicuculline” value [5] was “ineffective”, the “effect against convulsions induced by sc picrotoxin” value [6] was “ineffective” and the “effect against convulsions induced by sc strychnine” value [7] was “ineffective”. For the same molecule, the “animals with anti-MES activity at 5 mg/kg” value ([1]; 5 mg/kg, 30 minutes, ip) was 4 of 4, the “animals with anti-MES activity at 30 mg/kg” value ([1]; ip, mice) was “all aminals” and the “anti-MES activity, active dose, 4 hours” value ([1]; 4 hours after ip administration, mice) was 30 mg/kg. For the same molecule, the “MES ED50” value ([1]; ip, mice) was 2.60 mg/kg and 2.6 mg/kg, the “anti-MES / anticonvulsant activity (in words)” value ([1]; ip, mice) was “good anti-MES activity; also recorded: most potent amide of PABA observed thus far; also recorded: greater potency than any of the prototype anticonvulsant” and the “increase in anti-MES activity over compound 14” value ([1]; mice) was roughly 10 fold. For the same molecule, the “time of peak effect for anti-MES activity” value ([1]; mice) was 30 min, the “PI values (in words)” value ([1]; mouse, in vivo, ip) was “higher PI values” and the “animals with rotorod toxicity at 20 mg/kg” value [8] was 3 of 4. The “animals with rotorod toxicity at 30 mg/kg” value [8] was “all aminals”, the “increase in toxicity over compound 14” value [8] was roughly 10 fold and the “time of peak effect for toxicity” value [8] was 30 min. The “rotorod toxicity, dose, 30 min” value ([8]; ip, 30 min) was 30 mg/kg, the “rotorod toxicity, dose, 4 hours” value ([8]; ip, 240 min) was 100 mg/kg and the “additional toxicity at higher doses” value (2×TD50 and 4×TD50, ip, mice) was “muscle relaxation, loss of righting reflex, decreased respiration with cyanosis and ptosis”. The “toxicity induced by the TD50 dose” value (TD50 dose, ip, mice) was “decreased motor activity, spasticity, ataxia, rotorod toxicity and sedation”, the “time after which all symptoms had disappeared” value (mouse, in vivo, ip) was no more than 2 h and the LD50 (in vivo [9]) was 161 mg/kg. For the same molecule, the TD50 (in vivo [9]) was 43.8 mg/kg and the “toxicity (in words)” value [10] was “most toxic”.
For `Nc1ccc(C(=O)Nc2ccccc2)cc1` [Example 2], the minimal effective dose [4, 13] was 100 mg/kg, the minimal effective dose [4, 14] was greater than 600 mg/kg and the “scMET PI (protective index = TD50/ED50)” value ([4]; ip, mice) was 1.88. The “MES PI (protective index = TD50/ED50)” value ([1]; mouse, in vivo, ip) was 2.20, the “activity against MES induced convulsions (dose range)” value [2, 15] was roughly 50 mg/kg and the “activity against scMet induced convulsions (dose range)” value [3, 15] was roughly 50 mg/kg.
`Cc1ccccc1NC(=O)c1ccc(N)cc1` [Example 3, 4-amino-N-(2-methylphenyl) benzamide] showed a minimal effective dose [4, 13] greater than 300 mg/kg, a minimal effective dose [4, 14] greater than 300 mg/kg and an LD50 (in vivo [9]) of less than 600 mg/kg.
For `Cc1cccc(NC(=O)c2ccc(N)cc2)c1` [Example 4], the minimal effective dose [4, 13] was 300 mg/kg, the minimal effective dose [4, 14] was greater than 600 mg/kg and the ED50 ([4]; ip) was 87.9 mg/kg. For the same molecule, the “scMET PI (protective index = TD50/ED50)” value ([4]; ip, mice) was 1.62, the “MES ED50” value ([1]; ip, mice) was 46.96 mg/kg and the “difference between the dosages producing toxicity and anti-MES activity” value ([1]; ip, mice) was “appreciable difference between the dosages producing toxicity and anti-MES activity”. The “MES PI (protective index = TD50/ED50)” value ([1]; mouse, in vivo, ip) was 3.03 and the TD50 ([8]; ip) was 142.51 mg/kg.
In the case of `Cc1ccc(NC(=O)c2ccc(N)cc2)cc1` [Example 5, 4-amino-N-(4-methylphenyl) benzamide], the minimal effective dose [4, 13] is reported as 30 mg/kg and the minimal effective dose [4, 14] is reported as greater than 600 mg/kg.
With `Cc1cccc(NC(=O)c2ccc(N)cc2)c1C` [Example 6] the minimal effective dose [4, 13] was 100 mg/kg, the minimal effective dose [4, 14] was greater than 300 mg/kg and the “animals with anti-MES activity at 30 mg/kg” value ([1]; ip, mice) was “approximately half the animals”. The “MES ED50” value ([1]; ip, mice) was 25.25 mg/kg, the “PI values (in words)” value ([1]; ip, mice) was “higher PI values” and the “anti-MES / anticonvulsant activity (in words)” value ([1]; ip, mice) was “good anti-MES activity”. The “MES PI (protective index = TD50/ED50)” value ([1]; mouse, in vivo, ip) was 4.11, the TD50 ([8]; ip) was 103.90 mg/kg and the LD50 (in vivo [9]) was less than 600 mg/kg.
In the case of `Cc1ccc(NC(=O)c2ccc(N)cc2)c(C)c1` [Example 7], the minimal effective dose [4, 13] is reported as 600 mg/kg, the minimal effective dose [4, 14] is reported as greater than 600 mg/kg and the “anti-MES / anticonvulsant activity (in words)” value ([1]; ip, mice) is reported as “good anti-MES activity”.
For `Cc1ccc(C)c(NC(=O)c2ccc(N)cc2)c1` [Example 8], the minimal effective dose [4, 13] was 300 mg/kg, the minimal effective dose [4, 14] was greater than 600 mg/kg and the “anti-MES / anticonvulsant activity (in words)” value ([1]; ip, mice) was “good anti-MES activity”.
Work on `Cc1ccc(NC(=O)c2ccc(N)cc2)cc1C` [Example 9] yielded a minimal effective dose [4, 13] of 300 mg/kg, a minimal effective dose [4, 14] of 300 mg/kg and an ED50 ([4]; ip) of 80.8 mg/kg. The “MES ED50” value ([1]; ip, mice) was 42.31 mg/kg, the “PI values (in words)” value ([1]; ip, mice) was “higher PI values” and the “anti-MES / anticonvulsant activity (in words)” value ([1]; ip, mice) was “good anti-MES activity”. The “MES PI (protective index = TD50/ED50)” value ([1]; mouse, in vivo, ip) was 4.59 and the TD50 ([8]; ip) was 194.14 mg/kg.
For `Cc1cc(C)cc(NC(=O)c2ccc(N)cc2)c1` [Example 10], the minimal effective dose [4, 13] was greater than 600 mg/kg, the minimal effective dose [4, 14] was greater than 600 mg/kg and the “anti-MES / anticonvulsant activity (in words)” value ([1]; ip, mice) was “good anti-MES activity”.
For `CC(C)c1ccccc1NC(=O)c1ccc(N)cc1` [Example 11], the minimal effective dose [4, 13] was 600 mg/kg, the “MES ED50” value ([1]; ip, mice) was 81.52 mg/kg and the “PI values (in words)” value ([1]; ip, mice) was “highest PI values”. For the same molecule, the “MES PI (protective index = TD50/ED50)” value ([1]; mouse, in vivo, ip) was 8.70 and the TD50 ([8]; ip) was 708.98 mg/kg.
In the case of `Cc1cccc(C(C)C)c1NC(=O)c1ccc(N)cc1` [Example 12], the minimal effective dose [4, 13] is reported as greater than 600 mg/kg, the minimal effective dose [4, 14] is reported as greater than 600 mg/kg and the “MES ED50” value ([1]; ip, mice) is reported as 86.13 mg/kg. For the same molecule, the “PI values (in words)” value ([1]; ip, mice) was “highest PI values”, the “anti-MES / anticonvulsant activity (in words)” value ([1]; ip, mice) was “more potent” and the “MES PI (protective index = TD50/ED50)” value ([1]; mouse, in vivo, ip) was greater than 17.42. The “rotorod toxicity at 600 mg/kg” value [8] was “no rotorod toxicity”, the TD50 ([8]; ip) was greater than 1500.0 mg/kg and the TD50 (in vivo [11]) was 1500 to 2000 mg/kg.
In the case of `CCc1cccc(C(C)C)c1NC(=O)c1ccc(N)cc1` [Example 13], the minimal effective dose [4, 13] is reported as 300 mg/kg, the minimal effective dose [4, 14] is reported as greater than 600 mg/kg and the “MES ED50” value ([1]; ip, mice) is reported as 16.67 mg/kg. The “anti-MES / anticonvulsant activity (in words)” value ([1]; ip, mice) was “more potent”, the “MES PI (protective index = TD50/ED50)” value ([1]; mouse, in vivo, ip) was 2.95 and the TD50 ([8]; ip) was 49.10 mg/kg. For the same molecule, the LD50 (in vivo [9]) was less than 600 mg/kg and the “animals with rotorod toxicity at 30 mg/kg” value ([10]; 30 mg/kg) was 1 out of 4.
For `Cc1cccc(C)c1NC(=O)c1cccc(N)c1` [II-1, 3-amino-N-(2,6-dimethylphenyl) benzamide], the “MES ED50” value ([1]; ip, mice) was 13.48 mg/kg, the “MES PI (protective index = TD50/ED50)” value ([1]; mouse, in vivo, ip) was 21.11 and the TD50 (in vivo [11]) was 285 mg/kg.
In the case of `CCC1(c2ccccc2)C(=O)NC(=O)NC1=O` [Phenobarbital, reference compound], the ED50 ([4]; ip) is reported as 13.2 mg/kg, the “MES ED50” value ([1]; ip, mice) is reported as 21.78 mg/kg and the “lethal dose (LD50)” value (ip, mice) is reported as 264.70 mg/kg.
For `O=C1NC(=O)C(c2ccccc2)(c2ccccc2)N1` [Phenytoin], the “plasma level at which ataxia is obvious” value [12] is listed as 30000 ng/mL, the “plasma level at which lethargy is apparent” value [12] is listed as “about 40 mcg/ml” and the “plasma level at which nystagmus is seen” value [12] is listed as “around 20 mcg/ml”. For the same molecule, the “plasma level controlling seizures” value [12] was no less than 10 µg/mL.
For `CCCC(CCC)C(=O)O` [Valproic Acid, reference compound], the ED50 ([4]; ip) was 149 mg/kg and the LD50 (in vivo [9]) was 1100 mg/kg.
